pIC50: −log10 of the molar value.
Each molecule was assayed against Urease (Canavalia ensiformis, UniProt P07374) (assay: Inhibition of jack bean urease assessed as reduction in ammonia production using urea as substrate after 15 mins by indophenol method).
Chain of Urease (P07374 whole entry): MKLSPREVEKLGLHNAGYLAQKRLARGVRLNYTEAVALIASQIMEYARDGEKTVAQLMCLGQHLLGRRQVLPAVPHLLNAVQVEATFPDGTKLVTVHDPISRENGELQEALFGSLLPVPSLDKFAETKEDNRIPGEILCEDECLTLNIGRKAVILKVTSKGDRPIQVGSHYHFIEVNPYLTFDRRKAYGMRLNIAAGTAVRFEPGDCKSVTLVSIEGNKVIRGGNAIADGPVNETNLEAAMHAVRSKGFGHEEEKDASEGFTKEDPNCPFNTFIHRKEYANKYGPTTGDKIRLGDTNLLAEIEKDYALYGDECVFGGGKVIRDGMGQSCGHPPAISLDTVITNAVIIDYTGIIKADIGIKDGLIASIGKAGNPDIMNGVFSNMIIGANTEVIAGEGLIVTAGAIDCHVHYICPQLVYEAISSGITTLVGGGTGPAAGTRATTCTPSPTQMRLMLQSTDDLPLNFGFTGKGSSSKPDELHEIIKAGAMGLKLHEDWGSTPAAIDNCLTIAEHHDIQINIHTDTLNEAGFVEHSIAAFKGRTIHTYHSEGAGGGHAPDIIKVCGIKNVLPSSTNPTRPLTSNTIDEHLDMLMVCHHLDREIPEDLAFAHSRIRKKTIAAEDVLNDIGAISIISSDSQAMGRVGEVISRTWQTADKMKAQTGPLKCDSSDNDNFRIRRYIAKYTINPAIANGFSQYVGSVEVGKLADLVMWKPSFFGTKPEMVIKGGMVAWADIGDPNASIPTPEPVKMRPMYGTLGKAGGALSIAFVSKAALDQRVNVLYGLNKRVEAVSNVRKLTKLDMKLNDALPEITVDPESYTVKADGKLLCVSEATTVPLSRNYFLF

In order of rising pIC50:
1. Cc1ccc(C(c2c[nH]c3ccc(C(=O)NNC(=S)NC45CC6CC(CC(C6)C4)C5)cc23)c2c[nH]c3ccc(C(=O)NNC(=S)NC45CC6CC(CC(C6)C4)C5)cc23)cc1 (stereo not drawn)  4.73
2. COc1cccc(NC(=S)NNC(=O)c2ccc3[nH]cc(C(c4ccc(C)cc4)c4c[nH]c5ccc(C(=O)NNC(=S)Nc6cccc(OC)c6)cc45)c3c2)c1  4.92
3. Cc1ccc(C(c2c[nH]c3ccc(C(=O)NNC(=S)Nc4ccc([N+](=O)[O-])cc4)cc23)c2c[nH]c3ccc(C(=O)NNC(=S)Nc4ccc([N+](=O)[O-])cc4)cc23)cc1  5.02
4. COc1ccccc1NC(=S)NNC(=O)c1ccc2[nH]cc(C(c3ccc(C)cc3)c3c[nH]c4ccc(C(=O)NNC(=S)Nc5ccccc5OC)cc34)c2c1  5.08
5. Cc1ccc(C(c2c[nH]c3ccc(C(=O)NNC(=S)Nc4cccc([N+](=O)[O-])c4)cc23)c2c[nH]c3ccc(C(=O)NNC(=S)Nc4cccc([N+](=O)[O-])c4)cc23)cc1  5.12
6. Cc1ccc(C(c2c[nH]c3ccc(C(=O)NNC(=S)Nc4cccc(C)c4)cc23)c2c[nH]c3ccc(C(=O)NNC(=S)Nc4cccc(C)c4)cc23)cc1  5.29
7. Cc1ccc(NC(=S)NNC(=O)c2ccc3[nH]cc(C(c4ccc(C)cc4)c4c[nH]c5ccc(C(=O)NNC(=S)Nc6ccc(C)cc6)cc45)c3c2)cc1  5.38
8. Cc1ccc(C(c2c[nH]c3ccc(C(=O)NNC(=S)Nc4ccccc4C)cc23)c2c[nH]c3ccc(C(=O)NNC(=S)Nc4ccccc4C)cc23)cc1  5.48
9. Cc1ccc(C(c2c[nH]c3ccc(C(=O)NNC(=S)Nc4ccc(Cl)cc4)cc23)c2c[nH]c3ccc(C(=O)NNC(=S)Nc4ccc(Cl)cc4)cc23)cc1  5.56
10. Cc1ccc(C(c2c[nH]c3ccc(C(=O)NNC(=S)Nc4ccccc4Br)cc23)c2c[nH]c3ccc(C(=O)NNC(=S)Nc4ccccc4Br)cc23)cc1  5.60
11. Cc1ccc(C(c2c[nH]c3ccc(C(=O)NNC(=S)Nc4cccc(Br)c4)cc23)c2c[nH]c3ccc(C(=O)NNC(=S)Nc4cccc(Br)c4)cc23)cc1  5.74
12. Cc1ccc(C(c2c[nH]c3ccc(C(=O)NNC(=S)Nc4ccc(Br)cc4)cc23)c2c[nH]c3ccc(C(=O)NNC(=S)Nc4ccc(Br)cc4)cc23)cc1  5.89
13. Cc1ccc(C(c2c[nH]c3ccc(C(=O)NNC(=S)Nc4ccccc4Cl)cc23)c2c[nH]c3ccc(C(=O)NNC(=S)Nc4ccccc4Cl)cc23)cc1  5.92
14. Cc1ccc(C(c2c[nH]c3ccc(C(=O)NNC(=S)Nc4ccc(F)cc4)cc23)c2c[nH]c3ccc(C(=O)NNC(=S)Nc4ccc(F)cc4)cc23)cc1  5.96
15. Cc1ccc(C(c2c[nH]c3ccc(C(=O)NNC(=S)Nc4cccc(F)c4)cc23)c2c[nH]c3ccc(C(=O)NNC(=S)Nc4cccc(F)c4)cc23)cc1  6.01
16. Cc1ccc(C(c2c[nH]c3ccc(C(=O)NNC(=S)Nc4ccccc4F)cc23)c2c[nH]c3ccc(C(=O)NNC(=S)Nc4ccccc4F)cc23)cc1  6.10
17. Cc1ccc(C(c2c[nH]c3ccc(C(=O)NNC(=S)Nc4ccc(C(F)(F)F)cc4)cc23)c2c[nH]c3ccc(C(=O)NNC(=S)Nc4ccc(C(F)(F)F)cc4)cc23)cc1  6.30
18. Cc1ccc(C(c2c[nH]c3ccc(C(=O)NNC(=S)Nc4ccc(Cl)c(Cl)c4)cc23)c2c[nH]c3ccc(C(=O)NNC(=S)Nc4ccc(Cl)c(Cl)c4)cc23)cc1  6.85

From ChEMBL document CHEMBL4177710, “Bisindolylmethane thiosemicarbazides as potential inhibitors of urease: Synthesis and molecular modeling studies” (Bioorg Med Chem, 2018)
